Laboratory results published in ChEMBL document CHEMBL4507297, “Data for DCP probe PF-04457845” (2021).

Assays:
[1] = biological target: Serine/threonine-protein kinase PLK1 (Homo sapiens) (UniProt P53350); settings: Compound concentration 1000.0 nM
[2] = biological target: Bone morphogenetic protein receptor type-1A (Homo sapiens) (UniProt P36894); settings: Compound concentration 1000.0 nM
[3] = biological target: Activated CDC42 kinase 1 (Homo sapiens) (UniProt Q07912); settings: Compound concentration 1000.0 nM
[4] = biological target: Serine/threonine-protein kinase Nek3 (Homo sapiens) (UniProt P51956); settings: Compound concentration 1000.0 nM
[5] = biological target: Serine/threonine-protein kinase pim-1 (Homo sapiens) (UniProt P11309); settings: Compound concentration 1000.0 nM
[6] = biological target: Protein-tyrosine kinase 6 (Homo sapiens) (UniProt Q13882); settings: Compound concentration 1000.0 nM
[7] = biological target: Cyclin-dependent kinase 2 homolog (Plasmodium falciparum (isolate 3D7)) (UniProt P61075); settings: Compound concentration 1000.0 nM
[8] = biological target: Cyclin-dependent kinase 4 (Homo sapiens) (UniProt P11802); settings: Compound concentration 1000.0 nM
[9] = system: eIF-2-alpha kinase GCN2 (Homo sapiens), Q9P2K8 [S808G]; settings: Compound concentration 1000.0 nM
[10] = biological target: Cyclin-dependent kinase 11A (Homo sapiens) (UniProt Q9UQ88); settings: Compound concentration 1000.0 nM
[11] = biological target: Serine/threonine-protein kinase ULK1 (Homo sapiens) (UniProt O75385); settings: Compound concentration 1000.0 nM
[12] = biological target: Serine/threonine-protein kinase BRSK1 (Homo sapiens) (UniProt Q8TDC3); settings: Compound concentration 1000.0 nM
[13] = biological target: Ephrin type-B receptor 1 (Homo sapiens) (UniProt P54762); settings: Compound concentration 1000.0 nM
[14] = biological target: Cyclin-dependent kinase 14 (Homo sapiens) (UniProt O94921); settings: Compound concentration 1000.0 nM
[15] = biological target: NT-3 growth factor receptor (Homo sapiens) (UniProt Q16288); settings: Compound concentration 1000.0 nM
[16] = biological target: Mast/stem cell growth factor receptor Kit (Homo sapiens) (UniProt P10721); settings: Compound concentration 1000.0 nM
[17] = biological target: Serine/threonine-protein kinase N2 (Homo sapiens) (UniProt Q16513); settings: Compound concentration 1000.0 nM
[18] = biological target: Dual serine/threonine and tyrosine protein kinase (Homo sapiens) (UniProt Q6XUX3); settings: Compound concentration 1000.0 nM
[19] = biological target: Calcium/calmodulin-dependent protein kinase type 1B (Homo sapiens) (UniProt Q6P2M8); settings: Compound concentration 1000.0 nM
[20] = biological target: Cyclin-dependent kinase 4 (Homo sapiens) (UniProt P11802); settings: Compound concentration 1000.0 nM; remark: listed apart in the source
[21] = biological target: T1, 5-hydroxytryptamine receptor 3A (Homo sapiens) (UniProt P46098); settings: Compound concentration 10.0 uM
T1 sequence (whole entry): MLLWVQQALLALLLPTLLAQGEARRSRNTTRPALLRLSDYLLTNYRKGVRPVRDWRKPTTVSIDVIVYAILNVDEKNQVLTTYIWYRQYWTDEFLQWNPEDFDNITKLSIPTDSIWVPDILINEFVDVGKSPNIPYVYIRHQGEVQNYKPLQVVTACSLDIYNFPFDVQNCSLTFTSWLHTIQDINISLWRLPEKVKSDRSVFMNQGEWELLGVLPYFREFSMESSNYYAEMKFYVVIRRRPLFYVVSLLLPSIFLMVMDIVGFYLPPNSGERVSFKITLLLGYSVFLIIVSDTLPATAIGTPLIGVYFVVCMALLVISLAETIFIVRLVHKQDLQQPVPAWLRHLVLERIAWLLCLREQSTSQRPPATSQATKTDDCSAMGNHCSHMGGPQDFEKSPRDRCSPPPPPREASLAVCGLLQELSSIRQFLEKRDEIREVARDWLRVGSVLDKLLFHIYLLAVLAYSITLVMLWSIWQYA

[22] = system: Epidermal growth factor receptor (Homo sapiens), P00533 [UNDEFINED MUTATION]; settings: Compound concentration 1000.0 nM
[23] = biological target: 5-hydroxytryptamine receptor 6 (Homo sapiens) (UniProt P50406); settings: Compound concentration 10.0 uM
[24] = biological target: Serine/threonine-protein kinase MRCK gamma (Homo sapiens) (UniProt Q6DT37); settings: Compound concentration 1000.0 nM
[25] = system: Tyrosine-protein kinase ABL1 (Homo sapiens), P00519 [Q252H]; settings: Compound concentration 1000.0 nM
[26] = biological target: Myosin light chain kinase (Homo sapiens) (UniProt Q32MK0); settings: Compound concentration 1000.0 nM
[27] = biological target: AP2-associated protein kinase 1 (Homo sapiens) (UniProt Q2M2I8); settings: Compound concentration 1000.0 nM
[28] = system: Phosphatidylinositol 4,5-bisphosphate 3-kinase catalytic subunit alpha isoform (Homo sapiens), P42336 [I800L]; settings: Compound concentration 1000.0 nM
[29] = system: Tyrosine-protein kinase ABL1 (Homo sapiens), P00519 [Y253F]; settings: Compound concentration 1000.0 nM
[30] = biological target: Serine/threonine-protein kinase Nek11 (Homo sapiens) (UniProt Q8NG66); settings: Compound concentration 1000.0 nM
[31] = biological target: Casein kinase I isoform alpha (Homo sapiens) (UniProt P48729); settings: Compound concentration 1000.0 nM
[32] = biological target: Calcium-dependent protein kinase 1 (Plasmodium falciparum) (UniProt P62344); settings: Compound concentration 1000.0 nM
[33] = system: Phosphatidylinositol 4,5-bisphosphate 3-kinase catalytic subunit alpha isoform (Homo sapiens), P42336 [Q546K]; settings: Compound concentration 1000.0 nM
[34] = biological target: Myosin-IIIb (Homo sapiens) (UniProt Q8WXR4); settings: Compound concentration 1000.0 nM
[35] = biological target: Phosphatidylinositol 3-kinase C2 domain-containing subunit gamma (Homo sapiens) (UniProt O75747); settings: Compound concentration 1000.0 nM
[36] = system: Tyrosine-protein kinase ABL1 (Homo sapiens), P00519 [F317I]; settings: Compound concentration 1000.0 nM
[37] = biological target: Mitogen-activated protein kinase 1 (Homo sapiens) (UniProt P28482); settings: Compound concentration 1000.0 nM
[38] = biological target: Serine/threonine-protein kinase 17A (Homo sapiens) (UniProt Q9UEE5); settings: Compound concentration 1000.0 nM
[39] = biological target: Serine/threonine-protein kinase WNK1 (Homo sapiens) (UniProt Q9H4A3); settings: Compound concentration 1000.0 nM

Cyclin-dependent kinase 4 (Homo sapiens), sequence (P11802 whole entry): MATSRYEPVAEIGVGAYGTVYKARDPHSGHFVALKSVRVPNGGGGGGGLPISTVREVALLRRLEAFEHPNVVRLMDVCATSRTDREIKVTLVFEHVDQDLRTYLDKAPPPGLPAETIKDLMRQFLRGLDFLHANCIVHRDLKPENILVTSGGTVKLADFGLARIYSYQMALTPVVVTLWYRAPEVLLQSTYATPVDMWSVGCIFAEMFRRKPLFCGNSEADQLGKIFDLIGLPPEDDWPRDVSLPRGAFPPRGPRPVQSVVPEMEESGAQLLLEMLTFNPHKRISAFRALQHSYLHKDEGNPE
Mitogen-activated protein kinase 1 (Homo sapiens), sequence (P28482 whole entry): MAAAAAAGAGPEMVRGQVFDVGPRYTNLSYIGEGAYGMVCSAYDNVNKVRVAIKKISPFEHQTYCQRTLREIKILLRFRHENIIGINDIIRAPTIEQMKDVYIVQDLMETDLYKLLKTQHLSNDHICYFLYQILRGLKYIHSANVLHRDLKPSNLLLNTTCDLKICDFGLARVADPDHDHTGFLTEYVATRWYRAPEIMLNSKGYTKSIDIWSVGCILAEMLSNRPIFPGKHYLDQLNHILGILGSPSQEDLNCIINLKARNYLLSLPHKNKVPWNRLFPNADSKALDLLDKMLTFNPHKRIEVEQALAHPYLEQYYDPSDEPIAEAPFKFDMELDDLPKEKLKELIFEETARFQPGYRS
Calcium-dependent protein kinase 1 (Plasmodium falciparum), sequence (P62344 2-524 limits assumed): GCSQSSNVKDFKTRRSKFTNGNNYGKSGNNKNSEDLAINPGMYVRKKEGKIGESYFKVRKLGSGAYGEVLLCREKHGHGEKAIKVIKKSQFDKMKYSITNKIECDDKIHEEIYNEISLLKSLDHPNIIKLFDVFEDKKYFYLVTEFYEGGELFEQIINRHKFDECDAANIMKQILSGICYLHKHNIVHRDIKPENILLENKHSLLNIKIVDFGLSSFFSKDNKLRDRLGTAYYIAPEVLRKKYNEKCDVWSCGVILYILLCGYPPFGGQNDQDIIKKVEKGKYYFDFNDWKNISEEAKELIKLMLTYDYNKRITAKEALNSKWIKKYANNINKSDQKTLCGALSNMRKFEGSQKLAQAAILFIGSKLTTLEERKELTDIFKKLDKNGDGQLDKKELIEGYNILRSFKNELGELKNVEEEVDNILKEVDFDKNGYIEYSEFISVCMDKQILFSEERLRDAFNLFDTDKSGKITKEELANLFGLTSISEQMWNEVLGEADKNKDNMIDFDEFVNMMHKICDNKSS
Serine/threonine-protein kinase Nek11 (Homo sapiens), sequence (Q8NG66 whole entry, canonical isoform): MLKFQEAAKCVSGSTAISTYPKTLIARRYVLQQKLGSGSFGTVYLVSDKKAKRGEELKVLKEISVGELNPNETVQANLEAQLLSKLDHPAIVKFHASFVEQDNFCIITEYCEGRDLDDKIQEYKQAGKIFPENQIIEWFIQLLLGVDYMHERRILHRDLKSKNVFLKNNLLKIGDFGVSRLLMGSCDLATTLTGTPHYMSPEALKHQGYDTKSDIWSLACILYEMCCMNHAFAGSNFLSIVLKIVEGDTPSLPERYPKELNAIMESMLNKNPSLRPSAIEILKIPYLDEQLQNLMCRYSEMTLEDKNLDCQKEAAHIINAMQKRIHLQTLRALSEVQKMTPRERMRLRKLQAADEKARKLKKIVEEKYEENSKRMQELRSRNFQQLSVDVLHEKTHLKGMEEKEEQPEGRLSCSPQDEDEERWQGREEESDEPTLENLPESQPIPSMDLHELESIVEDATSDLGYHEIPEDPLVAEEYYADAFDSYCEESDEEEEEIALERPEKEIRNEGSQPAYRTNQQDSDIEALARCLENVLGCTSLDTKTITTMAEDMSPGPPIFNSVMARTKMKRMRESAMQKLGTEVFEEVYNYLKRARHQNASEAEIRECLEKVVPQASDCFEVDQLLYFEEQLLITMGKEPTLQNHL
Myosin-IIIb (Homo sapiens), sequence (Q8WXR4 whole entry, the tested form may be a part): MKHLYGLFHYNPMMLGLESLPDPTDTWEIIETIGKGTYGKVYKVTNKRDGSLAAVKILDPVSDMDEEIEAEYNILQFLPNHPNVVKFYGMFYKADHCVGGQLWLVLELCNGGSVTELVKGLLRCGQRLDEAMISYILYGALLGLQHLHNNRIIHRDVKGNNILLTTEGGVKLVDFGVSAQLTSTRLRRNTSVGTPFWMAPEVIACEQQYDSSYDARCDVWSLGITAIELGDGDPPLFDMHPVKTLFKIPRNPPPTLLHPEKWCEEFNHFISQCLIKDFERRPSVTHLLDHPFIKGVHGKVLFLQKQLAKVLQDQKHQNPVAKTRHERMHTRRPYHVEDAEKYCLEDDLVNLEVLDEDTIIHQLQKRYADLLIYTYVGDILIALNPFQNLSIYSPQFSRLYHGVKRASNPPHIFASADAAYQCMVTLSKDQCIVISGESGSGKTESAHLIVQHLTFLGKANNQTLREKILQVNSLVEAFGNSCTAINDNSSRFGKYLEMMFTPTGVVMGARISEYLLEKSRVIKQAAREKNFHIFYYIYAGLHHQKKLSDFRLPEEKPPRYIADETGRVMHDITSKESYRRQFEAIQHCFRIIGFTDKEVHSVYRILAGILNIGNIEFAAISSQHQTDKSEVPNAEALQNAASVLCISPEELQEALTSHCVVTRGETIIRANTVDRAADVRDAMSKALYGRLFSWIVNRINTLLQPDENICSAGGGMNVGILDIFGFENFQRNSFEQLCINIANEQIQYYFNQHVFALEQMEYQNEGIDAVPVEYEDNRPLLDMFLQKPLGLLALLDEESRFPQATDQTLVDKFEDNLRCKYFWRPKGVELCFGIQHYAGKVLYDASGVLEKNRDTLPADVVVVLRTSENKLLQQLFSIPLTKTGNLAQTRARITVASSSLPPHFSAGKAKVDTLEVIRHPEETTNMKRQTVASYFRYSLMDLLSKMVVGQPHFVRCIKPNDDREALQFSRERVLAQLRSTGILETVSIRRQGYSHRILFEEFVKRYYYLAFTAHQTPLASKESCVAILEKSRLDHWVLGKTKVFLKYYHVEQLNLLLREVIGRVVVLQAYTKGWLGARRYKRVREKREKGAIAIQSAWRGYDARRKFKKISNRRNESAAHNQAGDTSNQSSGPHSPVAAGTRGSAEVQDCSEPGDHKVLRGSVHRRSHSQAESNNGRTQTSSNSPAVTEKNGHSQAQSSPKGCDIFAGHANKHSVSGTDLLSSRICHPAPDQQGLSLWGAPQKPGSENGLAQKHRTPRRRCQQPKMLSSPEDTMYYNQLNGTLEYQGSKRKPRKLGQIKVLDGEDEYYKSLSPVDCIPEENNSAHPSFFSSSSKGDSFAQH
NT-3 growth factor receptor (Homo sapiens), sequence (Q16288 32-839 limits assumed): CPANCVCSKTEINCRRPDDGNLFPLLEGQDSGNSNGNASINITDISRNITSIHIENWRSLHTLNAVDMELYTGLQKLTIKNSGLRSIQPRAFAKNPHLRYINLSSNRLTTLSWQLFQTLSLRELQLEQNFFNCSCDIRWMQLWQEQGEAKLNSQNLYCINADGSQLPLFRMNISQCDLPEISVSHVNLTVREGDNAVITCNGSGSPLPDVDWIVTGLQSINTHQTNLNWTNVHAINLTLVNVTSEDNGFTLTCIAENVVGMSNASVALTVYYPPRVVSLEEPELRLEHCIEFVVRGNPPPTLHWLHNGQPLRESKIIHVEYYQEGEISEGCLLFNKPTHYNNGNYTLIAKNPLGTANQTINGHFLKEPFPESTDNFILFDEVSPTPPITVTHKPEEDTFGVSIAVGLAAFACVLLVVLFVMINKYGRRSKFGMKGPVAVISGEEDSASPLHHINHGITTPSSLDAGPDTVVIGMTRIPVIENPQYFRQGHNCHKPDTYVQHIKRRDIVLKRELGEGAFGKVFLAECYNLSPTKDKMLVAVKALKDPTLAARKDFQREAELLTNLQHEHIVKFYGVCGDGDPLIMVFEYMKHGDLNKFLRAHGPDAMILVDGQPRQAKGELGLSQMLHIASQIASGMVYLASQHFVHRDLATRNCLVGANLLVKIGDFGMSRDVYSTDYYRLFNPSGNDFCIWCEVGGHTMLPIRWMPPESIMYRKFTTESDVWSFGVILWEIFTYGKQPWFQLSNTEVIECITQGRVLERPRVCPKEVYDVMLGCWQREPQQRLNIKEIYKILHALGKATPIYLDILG
Casein kinase I isoform alpha (Homo sapiens), sequence (P48729 2-337 limits assumed): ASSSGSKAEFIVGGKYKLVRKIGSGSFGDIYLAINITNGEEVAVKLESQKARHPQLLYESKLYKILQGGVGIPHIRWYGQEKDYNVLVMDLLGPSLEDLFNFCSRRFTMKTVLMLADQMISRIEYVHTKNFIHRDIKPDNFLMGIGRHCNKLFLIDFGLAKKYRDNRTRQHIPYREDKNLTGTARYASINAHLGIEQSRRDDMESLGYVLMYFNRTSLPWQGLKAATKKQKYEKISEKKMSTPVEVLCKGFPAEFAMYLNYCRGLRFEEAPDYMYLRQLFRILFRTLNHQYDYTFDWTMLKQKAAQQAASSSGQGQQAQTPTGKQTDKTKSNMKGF
Serine/threonine-protein kinase Nek3 (Homo sapiens), sequence (P51956 whole entry): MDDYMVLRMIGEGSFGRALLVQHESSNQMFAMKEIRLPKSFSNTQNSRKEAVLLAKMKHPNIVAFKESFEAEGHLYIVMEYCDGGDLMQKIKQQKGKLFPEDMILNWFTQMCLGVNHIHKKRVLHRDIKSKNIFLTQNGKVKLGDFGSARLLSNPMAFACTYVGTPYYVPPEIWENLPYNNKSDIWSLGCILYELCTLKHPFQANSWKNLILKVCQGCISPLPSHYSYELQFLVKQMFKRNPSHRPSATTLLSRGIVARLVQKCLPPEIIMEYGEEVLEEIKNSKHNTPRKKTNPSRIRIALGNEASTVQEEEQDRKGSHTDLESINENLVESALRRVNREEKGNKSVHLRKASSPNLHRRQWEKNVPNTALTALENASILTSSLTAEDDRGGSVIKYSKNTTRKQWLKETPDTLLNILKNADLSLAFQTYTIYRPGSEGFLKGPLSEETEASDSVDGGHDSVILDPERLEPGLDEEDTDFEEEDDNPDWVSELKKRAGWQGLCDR

With `O=C(Nc1cccnn1)N1CC(C/C=C/c2cncc(Oc3ccc(C(F)(F)F)cn3)n2)C1` the residual activity [1] was 87%, the residual activity [2] was 100% and the residual activity [3] was 100%. It also gave a residual activity [4] of 100%, a residual activity [5] of 91% and a residual activity [6] of 91%. The residual activity [7] was 93%, the residual activity [8] was 86% and the residual activity [9] was 97%. It also gave a residual activity [10] of 100%, a residual activity [11] of 79% and a residual activity [12] of 100%. It also gave a residual activity [13] of 100%, a residual activity [14] of 100% and a residual activity [15] of 85%. It also gave a residual activity [16] of 80%, a residual activity [17] of 100% and a residual activity [18] of 65%. It also gave a residual activity [19] of 63%, a residual activity [20] of 94% and an inhibition [21] of -0.28%. For the same compound, the residual activity [22] was 95%, the inhibition [23] was 7.76% and the residual activity [24] was 100%. For the same compound, the residual activity [25] was 100%, the residual activity [26] was 85% and the residual activity [27] was 100%. It also gave a residual activity [28] of 91%, a residual activity [29] of 92% and a residual activity [30] of 100%. The residual activity [31] was 88%, the residual activity [32] was 99% and the residual activity [33] was 92%. For the same compound, the residual activity [34] was 100%, the residual activity [35] was 100% and the residual activity [36] was 67%. The residual activity [37] was 100%, the residual activity [38] was 100% and the residual activity [39] was 100%.
`O=C(Nc1cccnn1)N1CCC(=Cc2cccc(Oc3ccc(C(F)(F)F)cn3)c2)CC1` showed a residual activity [1] of 100%, a residual activity [2] of 100% and a residual activity [3] of 100%. The residual activity [4] was 100%, the residual activity [5] was 85% and the residual activity [6] was 100%. The residual activity [7] was 100%, the residual activity [8] was 100% and the residual activity [9] was 87%. It also gave a residual activity [10] of 82%, a residual activity [11] of 84% and a residual activity [12] of 73%. It also gave a residual activity [13] of 100%, a residual activity [14] of 89% and a residual activity [15] of 100%. It also gave a residual activity [16] of 81%, a residual activity [17] of 100% and a residual activity [18] of 69%. It also gave a residual activity [19] of 100%, a residual activity [20] of 96% and an inhibition [21] of 10.7%. It also gave a residual activity [22] of 100%, an inhibition [23] of 40.6% and a residual activity [24] of 84%. The residual activity [25] was 75%, the residual activity [26] was 100% and the residual activity [27] was 74%. It also gave a residual activity [28] of 100%, a residual activity [29] of 100% and a residual activity [30] of 100%. For the same compound, the residual activity [31] was 100%, the residual activity [32] was 93% and the residual activity [33] was 45%. It also gave a residual activity [34] of 100%, a residual activity [35] of 95% and a residual activity [36] of 100%. It also gave a residual activity [37] of 92%, a residual activity [38] of 79% and a residual activity [39] of 100%.
